Measurements published in patent publication US11083729B2, “Methods of treating cancer with small molecule NF-κB inhibitors” (ImmuneTarget, Inc., priority 2017, dated 2021).
Values belong to the compound of their own block, whether it stands above or below them.

Experiments:
Capan-1 = test: CellTiter-Glo IG50, Example 8, Capan-1; format: cell-based; conditions: Homo sapiens, Capan-1, 72 hours
Description: (§1) Various pancreatic, liver, colon, breast, and stomach cancer cell lines were exposed to the NF-κB inhibitors of the present invention, including, for example, IT-839, IT-843, IT-848, and IT-878, and assessed for IG50 in the CellTiter Glo 2.0 assay.
(§2) The cells were cultured in an atmosphere of 37° C., 5% CO2 and 95% humidity. All culture media and FBS were purchased from GIBCO, Hyclone or Sigma, USA. The media used for cell culture is described in the table below.
(§3) The cells were harvested during the logarithmic growth period and counted. Cell concentrations were adjusted to the appropriate number in appropriate medium and 90 μl cell suspensions were added to 96-well plates. When cells were added, the plates were shaken gently to distribute the cells evenly. Cells were incubated at 37° C. and 5% CO2.
(§4) 3× serial dilutions of test compound stock solutions with respective solvents were prepared. The stock solutions were diluted with culture medium to generate 10× working solutions of the test compounds. 10 μl of the 10× test compound solutions were added to each well in triplicate for each concentration. Plates were incubated for 72 hours in a humidified incubator at 37° C. and 5% CO2.
(§5) CellTiter-Glo (CTG) solution was thawed and equilibrated to room temperature. 50 μl of CTG were added to each well and the contents were mixed for 2 minutes on a plate shaker. Cells were incubated for 10 minutes before luminescence signal was recorded using Envision.
(§6) Cell viability was plotted with GraphPad Prism version 5 and the IG50 was calculated for each cell line. The graphical curves were fitted using a nonlinear regression model with a sigmoidal dose response. IG50 is the concentration of test drug where 100×T/C=50 (the optical density of the test well after a 3-day period of exposure to test drug is T; the control optical density is C).

PANC-1 = test: CellTiter-Glo IG50, Example 8, PANC-1; format: cell-based; conditions: Homo sapiens, PANC-1, 72 hours
Description: as §1, §2, §3, §4, §5, §6

MIAPACA-2 = test: CellTiter-Glo IG50, Example 8, MIAPACA-2; format: cell-based; conditions: Homo sapiens, MIA PaCa-2, MIAPACA-2, 72 hours
Description: as §1, §2, §3, §4, §5, §6

PLC/PRF/5 [1] = test: CellTiter-Glo IG50, Example 8, PLC/PRF/5; format: cell-based; conditions: Homo sapiens, PLC/PRF/5, 72 hours
Description: as §1, §2, §3, §4, §5, §6

HepG2 [2] = test: CellTiter-Glo IG50, Example 8, HepG2; format: cell-based; conditions: Homo sapiens, HepG2, 72 hours
Description: as §1, §2, §3, §4, §5, §6

Hep3B [3] = test: CellTiter-Glo IG50, Example 8, Hep3B; format: cell-based; conditions: Homo sapiens, 72 hours
Description: as §1, §2, §3, §4, §5, §6

HCT116 = test: CellTiter-Glo IG50, Example 8, HCT116; format: cell-based; conditions: Homo sapiens, HCT-116, HCT116, 72 hours
Description: as §1, §2, §3, §4, §5, §6

HT-29 = test: CellTiter-Glo IG50, Example 8, HT-29; format: cell-based; conditions: Homo sapiens, HT-29, 72 hours
Description: as §1, §2, §3, §4, §5, §6

LoVo = test: CellTiter-Glo IG50, Example 8, LoVo; format: cell-based; conditions: Homo sapiens, 72 hours
Description: as §1, §2, §3, §4, §5, §6

MCF-7 = test: CellTiter-Glo IG50, Example 8, MCF-7; format: cell-based; conditions: Homo sapiens, MCF7, MCF-7, 72 hours
Description: as §1, §2, §3, §4, §5, §6

MDA-MB-231 = test: CellTiter-Glo IG50, Example 8, MDA-MB-231; format: cell-based; conditions: Homo sapiens, MDA-MB-231, 72 hours
Description: as §1, §2, §3, §4, §5, §6

T47D = test: CellTiter-Glo IG50, Example 8, T47D; format: cell-based; conditions: Homo sapiens, 72 hours
Description: as §1, §2, §3, §4, §5, §6

AGS = test: CellTiter-Glo IG50, Example 8, AGS; format: cell-based; conditions: Homo sapiens, 72 hours
Description: as §1, §2, §3, §4, §5, §6

MKN45 = test: CellTiter-Glo IG50, Example 8, MKN45; format: cell-based; conditions: Homo sapiens, MKN-45, MKN45, 72 hours
Description: as §1, §2, §3, §4, §5, §6

KATO III = test: CellTiter-Glo IG50, Example 8, KATO III; format: cell-based; conditions: Homo sapiens, 72 hours
Description: as §1, §2, §3, §4, §5, §6

HepG2 [4] = test: CellTiter-Glo IG50, Example 9 HCC panel, HepG2; format: cell-based; conditions: Homo sapiens, HepG2, 72 hours
Description: as §3, §4, §5, §6, §2
(§7) Following the cell culture protocol and data analysis methods described in Example 8, the following IG50 results (in μM) were observed: […]

Hep3B [5] = test: CellTiter-Glo IG50, Example 9 HCC panel, Hep3B; format: cell-based; conditions: Homo sapiens, 72 hours
Description: as §3, §4, §5, §6, §2, §7

PLC/PRF/5 [6] = test: CellTiter-Glo IG50, Example 9 HCC panel, PLC/PRF/5; format: cell-based; conditions: Homo sapiens, PLC/PRF/5, 72 hours
Description: as §3, §4, §5, §6, §2, §7

HUH7 = test: CellTiter-Glo IG50, Example 9 HCC panel, HUH7; format: cell-based; conditions: Homo sapiens, Huh-7, HUH7, 72 hours
Description: as §3, §4, §5, §6, §2, §7

JHH5 = test: CellTiter-Glo IG50, Example 9 HCC panel, JHH5; format: cell-based; conditions: JHH5, 72 hours
Description: as §3, §4, §5, §6, §2, §7

PBMC = test: CellTiter-Glo IG50, Example 9 HCC panel, PBMC; format: cell-based; conditions: 72 hours
Description: as §3, §4, §5, §6, §2, §7

SNU878 = test: CellTiter-Glo IG50, Example 9 HCC panel, SNU878; format: cell-based; conditions: SNU878, 72 hours
Description: as §3, §4, §5, §6, §2, §7

c-Rel protein = biological target: T1, c-Rel protein (Homo sapiens, UniProt Q04864); test: Electrophoretic Mobility Shift Assay (EMSA), c-Rel binding to CD28RE oligonucleotide; conditions: 10 nM c-Rel protein
T1 sequence (Q04864 1-619): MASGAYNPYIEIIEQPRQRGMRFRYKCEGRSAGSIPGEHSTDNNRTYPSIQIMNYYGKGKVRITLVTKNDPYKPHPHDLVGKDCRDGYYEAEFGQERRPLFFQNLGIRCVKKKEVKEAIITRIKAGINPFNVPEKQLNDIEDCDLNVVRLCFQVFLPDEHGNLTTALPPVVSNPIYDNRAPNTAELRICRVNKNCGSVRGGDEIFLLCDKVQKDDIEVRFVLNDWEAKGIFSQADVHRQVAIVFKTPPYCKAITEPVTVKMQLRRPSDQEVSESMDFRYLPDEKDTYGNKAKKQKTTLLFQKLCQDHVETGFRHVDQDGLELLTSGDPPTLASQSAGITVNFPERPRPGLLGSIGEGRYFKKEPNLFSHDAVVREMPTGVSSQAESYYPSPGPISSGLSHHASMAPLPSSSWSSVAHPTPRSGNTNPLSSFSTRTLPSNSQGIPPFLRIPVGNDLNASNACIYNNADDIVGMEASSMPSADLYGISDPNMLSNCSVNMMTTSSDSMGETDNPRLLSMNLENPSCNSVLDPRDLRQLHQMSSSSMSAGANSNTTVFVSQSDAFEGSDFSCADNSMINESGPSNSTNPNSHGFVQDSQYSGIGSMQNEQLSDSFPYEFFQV
Description: DNA binding reaction (20 μL) was carried out in 1×DNA Binding Buffer (10 mM Tris, 40 mM NaCl, 1 mM EDTA, 4% glycerol) with 10 nM c-Rel protein and 0.5 ng phosphor-labeled CD28RE oligonucleotide for 10 minutes at room temperature in 96-well plates. Test compounds, in serial dilutions, were added into each well, and further incubated for 15 minutes before loading onto native 5% polyacrylamide gel. Electrophoresis proceeded for 2.5 hours at 160V. Radioactive signals were quantified using Phospho-Imager. IC50 of compounds of example 1 to 75 were determined by quantifying the intensity of Rel/NF-κB inhibition in EMSA using phospho-imager. An example of EMSA data of the present invention is shown for compound 6 in FIG. 2.

- IC50 (c-Rel protein): < 500 nM
Compound: CCCCCCCOc1ccc2cc3c(=O)[nH]c(=O)nc-3oc2c1F [compound 52]

- IC50 (c-Rel protein): < 1000 nM
Compound: COCCOCCOc1cc2oc3nc(=O)[nH]c(=O)c-3cc2cc1F [compound 65]

- IC50 (c-Rel protein): < 500 nM
Compound: CCCCCCOc1ccc2cc3c(=O)[nH]c(=O)nc-3oc2c1Cl [compound 44]

- IC50 (c-Rel protein): < 1000 nM
Compound: CCCCOc1ccc2cc3c(=O)[nH]c(=O)nc-3oc2c1 [compound 50]

- IC50 (c-Rel protein): < 500 nM
Compound: CC(C)COc1ccc2cc3c(=O)[nH]c(=O)nc-3oc2c1F [compound 48]

Continued, compound first:

Compound: CC(C)CCCOc1cc2oc3nc(=O)[nH]c(=O)c-3cc2cc1F [IT-839]
- IC50 (Capan-1): > 16 µM
- IC50 (PANC-1): 6.93 µM
- IC50 (MIAPACA-2): > 16 µM
- IC50 (PLC/PRF/5 [1]): > 16 µM
- IC50 (HepG2 [2]): 10.5 µM
- IC50 (Hep3B [3]): 3.35 µM
- IC50 (HCT116): > 16 µM
- IC50 (HT-29): > 16 µM
- IC50 (LoVo): 4.34 µM
- IC50 (MCF-7): > 16 µM
- IC50 (MDA-MB-231): 2.01 µM
- IC50 (T47D): > 16 µM
- IC50 (AGS): > 16 µM
- IC50 (MKN45): > 16 µM
- IC50 (KATO III): > 16 µM

Compound: CCCCCCOc1cc2oc3nc(=O)[nH]c(=O)c-3cc2cc1F [IT-835]
- IC50 (HepG2 [4]): > 16 µM
- IC50 (Hep3B [5]): 3.26 µM
- IC50 (PLC/PRF/5 [6]): > 16 µM
- IC50 (HUH7): 5.4 µM
- IC50 (JHH5): > 16 µM
- IC50 (PBMC): 0.985 µM
- IC50 (SNU878): > 16 µM

Compound: COCCCCOc1ccc2cc3c(=O)[nH]c(=O)nc-3oc2c1Cl [IT-878]
- IC50 (Capan-1): > 16 µM
- IC50 (PANC-1): > 16 µM
- IC50 (MIAPACA-2): 17.8 µM
- IC50 (PLC/PRF/5 [1]): > 16 µM
- IC50 (HepG2 [2]): > 16 µM
- IC50 (Hep3B [3]): 3.45 µM
- IC50 (HCT116): > 16 µM
- IC50 (HT-29): > 16 µM
- IC50 (LoVo): > 16 µM
- IC50 (MCF-7): > 16 µM
- IC50 (MDA-MB-231): > 16 µM
- IC50 (T47D): > 16 µM
- IC50 (AGS): > 16 µM
- IC50 (MKN45): > 16 µM
- IC50 (KATO III): > 16 µM

Compound: O=C(O)CCCCCOc1ccc2cc3c(=O)[nH]c(=O)nc-3oc2c1Cl [IT-855]
- IC50 (HepG2 [4]): > 16 µM
- IC50 (Hep3B [5]): > 16 µM
- IC50 (PLC/PRF/5 [6]): > 16 µM
- IC50 (HUH7): > 16 µM
- IC50 (JHH5): 8.15 µM
- IC50 (PBMC): > 16 µM
- IC50 (SNU878): 9.15 µM

Compound: Nc1ccn([C@@H]2O[C@H](CO)[C@@H](O)C2(F)F)c(=O)n1 [Gemcitabine, gemcitabine, reference compound]
- IC50 (Capan-1): 0.051 µM
- IC50 (PANC-1): > 16 µM
- IC50 (MIAPACA-2): 0.012 µM
- IC50 (MCF-7): > 16 µM
- IC50 (MDA-MB-231): > 16 µM
- IC50 (T47D): > 16 µM

Compound: O=c1[nH]cc(F)c(=O)[nH]1 [5-FU, 5-fluorouracil, reference compound]
- IC50 (HCT116): 5.2 µM
- IC50 (HT-29): 15.9 µM
- IC50 (LoVo): 27 µM
- IC50 (AGS): 31.9 µM
- IC50 (MKN45): 4.72 µM
- IC50 (KATO III): > 64 µM

Compound: COCCOCCOc1ccc2cc3c(=O)[nH]c(=O)nc-3oc2c1Cl [IT-876]
- IC50 (HepG2 [4]): 4.9 µM
- IC50 (Hep3B [5]): > 16 µM
- IC50 (PLC/PRF/5 [6]): > 16 µM
- IC50 (HUH7): 17.7 µM
- IC50 (JHH5): 8.5 µM
- IC50 (PBMC): 8.67 µM
- IC50 (SNU878): > 16 µM

Compound: CCCOc1ccc2cc3c(=O)[nH]c(=O)nc-3oc2c1 [compound 19, 8-propoxy-2H-chromeno[2,3-d]pyrimidine-2,4(3H)-dione]
- IC50 (c-Rel protein): < 1000 nM

Compound: Cc1ccc2cc3c(=O)[nH]c(=O)nc-3oc2c1 [compound 12, 8-methyl-2H-chromeno[2,3-d]pyrimidine-2,4(3H)-dione]
- IC50 (c-Rel protein): < 1000 nM
